In US10131652B2, “Pyrimidinyloxy benzene derivatives as herbicides” (E. I. DU PONT DE NEMOURS AND COMPANY, priority 2014, dated 2018):

How the values were obtained:
Assay type in all cases: in vivo
[1] = test system: barnyardgrass (Echinochloa crus-galli); experiment: Test C flooded paddy test plant response; details: Flood, 250 g ai/ha; scale of 0 to 100 where 0 is no effect and 100 is complete control; 13 to 15 days
Summary of the method: (§1)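 Plants grown to 2-leaf stage, flooded 3 cm above soil; compounds applied directly into paddy water, depth kept throughout. Visual rating versus controls after 13 to 15 days in greenhouse, 0 (no effect) to 100 (complete control).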

[2] = test system: rice (Oryza sativa); experiment: Test C flooded paddy test plant response; details: Flood, 250 g ai/ha; scale of 0 to 100 where 0 is no effect and 100 is complete control; 13 to 15 days
Summary of the method: as §1

[3] = test system: small-flower umbrella sedge (Cyperus difformis); experiment: Test C flooded paddy test plant response; details: Flood, 250 g ai/ha; scale of 0 to 100 where 0 is no effect and 100 is complete control; 13 to 15 days
Summary of the method: as §1

[4] = test system: ducksalad (Heteranthera limosa); experiment: Test C flooded paddy test plant response; details: Flood, 250 g ai/ha; scale of 0 to 100 where 0 is no effect and 100 is complete control; 13 to 15 days
Summary of the method: as §1

[5] = test system: barnyardgrass (Echinochloa crus-galli); experiment: Test B pre-/postemergence plant response
Source text: (§2) Seeds of plant species selected from bamyardgrass (Echinochloa crus-galli), kochia (Kochia scoparia), ragweed (common ragweed, Ambrosia elatior), Italian ryegrass (Lolium multiflorum), large (Lg) crabgrass (Digitaria sanguinalis), giant foxtail (Setaria faberii), momingglory (Ipomoea spp.), pigweed (Amaranthus retroflexus), velvetleaf (Abutilon theophrasti), wheat (Triticum aestivum), and corn (Zea mays) were planted into a blend of loam soil and sand and treated preemergence with a directed soil spray using test chemicals formulated in a non-phytotoxic solvent mixture which included a surfactant. At the same time, plants selected from these crop and weed species and also blackgrass (Alopecurus myosuroides), and galium (catchweed bedstraw, Galium aparine) were planted in pots containing the same blend of loam soil and sand and treated with postemergence applications of test chemicals formulated in the same manner. Plants ranged in height from 2 to 10 cm and were in the one- to two-leaf stage for the postemergence treatment. Treated plants and untreated controls were maintained in a greenhouse for approximately 10 days, after which time all treated plants were compared to untreated controls and visually evaluated for injury. Plant response ratings, summarized in Table B, are based on a 0 to 100 scale where 0 is no effect and 100 is complete control. A dash (-) response means no test result.

[6] = test system: giant foxtail (Setaria faberii); experiment: Test B pre-/postemergence plant response
Source text: as §2

[7] = test system: wheat (Triticum aestivum); experiment: Test B pre-/postemergence plant response
Source text: as §2

[8] = test system: Italian ryegrass (Lolium multiflorum); experiment: Test B pre-/postemergence plant response
Source text: as §2

[9] = test system: kochia (Kochia scoparia); experiment: Test B pre-/postemergence plant response
Source text: as §2

[10] = test system: corn (Zea mays); experiment: Test B pre-/postemergence plant response
Source text: as §2

[11] = test system: ragweed (common ragweed, Ambrosia elatior); experiment: Test B pre-/postemergence plant response
Source text: as §2

[12] = test system: pigweed (Amaranthus retroflexus); experiment: Test B pre-/postemergence plant response
Source text: as §2

[13] = test system: galium (catchweed bedstraw, Galium aparine); experiment: Test B postemergence plant response
Summary of the method: (§3)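 Injury was assessed visually about 10 days after treatment, scored from 0 (no effect) to 100 (complete control) by comparison with untreated controls. Test chemicals had been applied postemergence to potted plants at the one- to two-leaf stage, grown in loam soil and sand in a greenhouse.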

[14] = test system: blackgrass (Alopecurus myosuroides); experiment: Test B postemergence plant response
Summary of the method: as §3

[15] = 125 g ai/ha, postemergence, 0 to 100 scale, 0 no effect, 100 complete control
[16] = Postemergence, 500 g ai/ha, 0 to 100 scale (0 no effect, 100 complete control)
[17] = Preemergence, 125 g ai/ha, 0 to 100 scale (0 no effect, 100 complete control)
[18] = Preemergence, 500 g ai/ha, 0 to 100 scale where 0 is no effect and 100 is complete control
[19] = 31 g ai/ha, Postemergence, 0 to 100 scale, 0 no effect, 100 complete control
[20] = 31 g ai/ha, Preemergence, 0 to 100 scale where 0 is no effect and 100 is complete control

SMILES | Barnyardgrass plant response rating [1] | Rice plant response rating [2] | Sedge, Umbrella plant response rating [3] | Ducksalad plant response rating [4] | Plant response rating, Barnyardgrass [5, 15] | Barnyardgrass plant response rating [5, 17] | Plant response rating, Foxtail, Giant [6, 15] | Foxtail, Giant plant response rating [6, 17] | Plant response rating, Wheat [7, 15] | Plant response rating, Ryegrass, Italian [8, 15] | Ryegrass, Italian plant response rating [8, 17] | Plant response rating, Kochia [9, 15] | Kochia plant response rating [9, 17] | Plant response rating, Corn [10, 15] | Plant response rating, Ragweed [11, 15] | Ragweed plant response rating [11, 17] | Plant response rating, Pigweed [12, 15] | Pigweed plant response rating [12, 17] | Plant response rating, Galium [13, 15] | Plant response rating, Blackgrass [14, 15] | other results
FC(F)(F)c1csc(-c2ccccc2Oc2ncc(Cl)cn2)n1 [Compound 137] | 0 | 0 | 0 | 20 | 0 | 0 | 0 | 0 | 0 | 0 | 0 | 0 | 0 | 0 | 0 | 0 | 30 | 0 | 0 | 0 | Plant response rating, Barnyardgrass [5, 16]: 10; Plant response rating, Barnyardgrass [5, 18]: 10; Plant response rating, Foxtail, Giant [6, 16]: 20; Plant response rating, Foxtail, Giant [6, 18]: 0; Plant response rating, Wheat [7, 16]: 0; Plant response rating, Ryegrass, Italian [8, 16]: 0; Plant response rating, Ryegrass, Italian [8, 18]: 0; Plant response rating, Kochia [9, 16]: 60; Plant response rating, Kochia [9, 18]: 10; Plant response rating, Corn [10, 16]: 20; Plant response rating, Ragweed [11, 16]: 0; Plant response rating, Ragweed [11, 18]: 0; Plant response rating, Pigweed [12, 16]: 90; Plant response rating, Pigweed [12, 18]: 20; Plant response rating, Galium [13, 16]: 20; Plant response rating, Blackgrass [14, 16]: 0
FC(F)(F)c1csc(-c2ccccc2Oc2ncc(I)cn2)n1 [Compound 138] | 0 | 0 | 0 | 20 | 0 | 0 | 0 | 0 | 0 | 0 | 0 | 0 | 0 | 0 | 0 | 0 | 0 | 0 | 0 | 0 | Plant response rating, Barnyardgrass [5, 16]: 0; Plant response rating, Barnyardgrass [5, 18]: 0; Plant response rating, Foxtail, Giant [6, 16]: 0; Plant response rating, Foxtail, Giant [6, 18]: 0; Plant response rating, Wheat [7, 16]: 0; Plant response rating, Ryegrass, Italian [8, 16]: 0; Plant response rating, Ryegrass, Italian [8, 18]: 0; Plant response rating, Kochia [9, 16]: 0; Plant response rating, Kochia [9, 18]: 0; Plant response rating, Corn [10, 16]: 0; Plant response rating, Ragweed [11, 16]: 0; Plant response rating, Ragweed [11, 18]: 0; Plant response rating, Pigweed [12, 16]: 0; Plant response rating, Pigweed [12, 18]: 0; Plant response rating, Galium [13, 16]: 0; Plant response rating, Blackgrass [14, 16]: 0
FC(F)(F)c1csc(-c2ccccc2Oc2ncc(Br)cn2)n1 [Compound 139] | 0 | 20 | 0 | 30 | 0 | 0 | 0 | 0 | 0 | 0 | 0 | 0 | 0 | 0 | 0 | 0 | 0 | 0 | 0 | 0 | Plant response rating, Barnyardgrass [5, 16]: 0; Plant response rating, Barnyardgrass [5, 18]: 0; Plant response rating, Foxtail, Giant [6, 16]: 0; Plant response rating, Foxtail, Giant [6, 18]: 0; Plant response rating, Wheat [7, 16]: 0; Plant response rating, Ryegrass, Italian [8, 16]: 0; Plant response rating, Ryegrass, Italian [8, 18]: 0; Plant response rating, Kochia [9, 16]: 0; Plant response rating, Kochia [9, 18]: 0; Plant response rating, Corn [10, 16]: 0; Plant response rating, Ragweed [11, 16]: 0; Plant response rating, Ragweed [11, 18]: 0; Plant response rating, Pigweed [12, 16]: 0; Plant response rating, Pigweed [12, 18]: 0; Plant response rating, Galium [13, 16]: 0; Plant response rating, Blackgrass [14, 16]: 0
O=Cc1cc(-c2ccccc2Oc2ncc(Cl)cn2)co1 [Compound 140] | 0 | 0 | 0 | 0 | 0 | 0 | 0 | 0 | 0 | 0 | 0 | 0 | 0 | 0 | 0 | 0 | 0 | 0 | 0 | 0 | Plant response rating, Barnyardgrass [5, 19]: 0; Plant response rating, Barnyardgrass [5, 20]: 0; Plant response rating, Foxtail, Giant [6, 19]: 0; Plant response rating, Foxtail, Giant [6, 20]: 0; Plant response rating, Ryegrass, Italian [8, 20]: 0; Plant response rating, Kochia [9, 20]: 0; Plant response rating, Corn [10, 19]: 0; Plant response rating, Ragweed [11, 20]: 0; Plant response rating, Pigweed [12, 20]: 0; Plant response rating, Blackgrass [14, 19]: 0
FC(F)c1cc(-c2ccccc2Oc2ncc(Cl)cn2)co1 [Compound 141] | 0 | 0 | 0 | 30 | 0 | 0 | 0 | 0 | 0 | 0 | 0 | 0 | 0 | 30 | 0 | 0 | 20 | 0 | 0 | 0 | Plant response rating, Barnyardgrass [5, 19]: 0; Plant response rating, Barnyardgrass [5, 20]: 0; Plant response rating, Foxtail, Giant [6, 19]: 0; Plant response rating, Foxtail, Giant [6, 20]: 0; Plant response rating, Ryegrass, Italian [8, 20]: 0; Plant response rating, Kochia [9, 20]: 0; Plant response rating, Corn [10, 19]: 0; Plant response rating, Ragweed [11, 20]: 0; Plant response rating, Pigweed [12, 20]: 0; Plant response rating, Blackgrass [14, 19]: 0
